Data on 16 molecules can be found in ChEMBL document CHEMBL3779790, “Novel Imbricatolic acid derivatives as protein tyrosine phosphatase-1B inhibitors: Design, synthesis, biological evaluation and molecular docking” (Bioorg Med Chem Lett, 2016).

A word on the inhibition: it is the relative decrease from the control value, in per cent. The IC50 is the midpoint of a concentration-inhibition curve.

Experiment [1] addresses T1, Tyrosine-protein phosphatase non-receptor type 1 (Homo sapiens) (UniProt P18031).
T1 sequence (whole entry): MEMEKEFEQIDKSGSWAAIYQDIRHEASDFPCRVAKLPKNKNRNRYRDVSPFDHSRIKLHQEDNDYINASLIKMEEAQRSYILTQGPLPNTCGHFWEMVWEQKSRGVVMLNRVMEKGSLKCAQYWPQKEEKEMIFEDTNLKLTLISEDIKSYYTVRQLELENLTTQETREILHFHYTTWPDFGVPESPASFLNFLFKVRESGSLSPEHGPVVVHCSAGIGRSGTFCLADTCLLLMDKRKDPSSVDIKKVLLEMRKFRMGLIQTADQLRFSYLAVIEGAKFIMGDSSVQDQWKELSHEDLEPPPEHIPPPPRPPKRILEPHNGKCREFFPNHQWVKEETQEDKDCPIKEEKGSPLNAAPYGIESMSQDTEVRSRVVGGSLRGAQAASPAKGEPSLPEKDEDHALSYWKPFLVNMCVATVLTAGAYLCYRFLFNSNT
Briefly: Inhibition of human recombinant PTP-1B using IR5 insulin receptor residues as substrate at 10 uM after 30 mins by malachite green assay.

The target of experiment [2] is T2, Tyrosine-protein phosphatase non-receptor type 1 (Homo sapiens, UniProt P18031).
T2 sequence (P18031 whole entry): T1 sequence (whole entry)
As to the kind of experiment: Inhibition of human recombinant PTP-1B using IR5 insulin receptor residues as substrate after 30 mins by malachite green assay.

Experiment [3] concerns the target T1, Tyrosine-protein phosphatase non-receptor type 1 (Homo sapiens). Briefly: Inhibition of human recombinant PTP-1B using IR5 insulin receptor residues as substrate at 1 uM after 30 mins by malachite green assay.
Experiment [4] has the same target. Briefly: Inhibition of human recombinant PTP-1B using IR5 insulin receptor residues as substrate at 5 uM after 30 mins by malachite green assay.
The target is the same in experiment [5]. As to the kind of experiment: Inhibition of human recombinant PTP-1B using IR5 insulin receptor residues as substrate at 30 uM after 30 mins by malachite green assay.
For experiment [6] the target is unchanged. As to the kind of experiment: Inhibition of human recombinant PTP-1B using IR5 insulin receptor residues as substrate at 100 uM after 30 mins by malachite green assay.

Regarding `C=C1CC[C@@H]2[C@](C)(CCC[C@]2(C)N=C=O)[C@H]1CC[C@H](C)CCO`, the inhibition in experiment [1] was determined as 41.3%.
In the case of `C=C1CC[C@@H]2[C@](C)(CCC[C@]2(C)NC(N)=O)[C@H]1CC[C@H](C)C/C=N/OC(C)=O`, the IC50 in experiment [2] is 7 µM. The inhibition in experiment [3] is 11.2%; in experiment [4] it was 31.7%; in experiment [1], 65.3%; in experiment [5] it was 79.1%; in experiment [6], 82.2%.
`C=C1CC[C@@H]2[C@](C)(CCC[C@]2(C)C(=O)O)[C@H]1CC[C@H](C)CC(=O)O`: in experiment [1], the inhibition is 35.6%.
As to `C=C1CC[C@@H]2[C@](C)(CCC[C@]2(C)NC(N)=O)[C@H]1CC[C@H](C)C/C=N/O`, the IC50 in experiment [2] came out at 7.8 µM. Besides, the inhibition in experiment [3] is 7.1%; in experiment [4], 38.2%; in experiment [1], 59.9%; in experiment [5], 63.2%; in experiment [6], 69.2%.
On to `C=C1CC[C@@H]2[C@](C)(CCC[C@]2(C)N=C=O)[C@H]1CC[C@H](C)CN=C=O`, for which the inhibition in experiment [1] stood at 45.7%.
As for `C=C1CC[C@@H]2[C@](C)(CCC[C@]2(C)C(=O)O)[C@H]1CC[C@H](C)CC=O`, in experiment [1], the inhibition came to 19.9%.
As for `C=C1CC[C@@H]2[C@](C)(CCC[C@]2(C)C(=O)O)[C@H]1CC[C@H](C)C/C=N/OC(C)=O`, in experiment [1], the inhibition came out at 43.5%.
For `C=C1CC[C@@H]2[C@](C)(CCC[C@]2(C)C(=O)O)[C@H]1CC[C@H](C)CCO` [IMBRICATOLIC ACID], the IC50 in experiment [2] was 8.8 µM. Further, the inhibition in experiment [3] is 5.9%; in experiment [4], 19.2%; in experiment [1], 59.2%; in experiment [5] it was 67.2%; in experiment [6] it was 71.1%.
In the case of `C=C1CC[C@@H]2[C@](C)(CCC[C@]2(C)C(=O)O)[C@H]1CC[C@H](C)C/C=N/O`, the inhibition in experiment [1] is 40.1%.
With `C=C1CC[C@@H]2[C@](C)(CCC[C@]2(C)NC(N)=O)[C@H]1CC[C@H](C)CCO`, the IC50 in experiment [2] was 6.3 µM. The inhibition came to 8.2% in experiment [3]; 25.9% in experiment [4]; 61.5% in experiment [1]; 79.2% in experiment [5]; 87.2% in experiment [6].
Turning to `C=C1CC[C@H]2[C@@](C)(COC(C)=O)CCC[C@]2(C)[C@H]1CC[C@H](C)CCOC(C)=O`, in experiment [1], the inhibition is 34.2%.
For `C=C1CC[C@@H]2[C@](C)(CCC[C@]2(C)C(=O)OCC)[C@H]1CC[C@H](C)CCO`, in experiment [1], the inhibition is 23.1%.
Regarding `C=C1CC[C@@H]2[C@](C)(CCC[C@]2(C)NC(N)=O)[C@H]1CC[C@H](C)CNC(N)=O`, the IC50 in experiment [2] is 6.8 µM. The inhibition is 9.3% in experiment [3]; 37.3% in experiment [4]; 65.8% in experiment [1]; 67.2% in experiment [5]; 79.2% in experiment [6].
With `Cc1ccc(C(=O)Nc2ccc(S(=O)(=O)O)c3cc(S(=O)(=O)O)cc(S(=O)(=O)O)c23)cc1NC(=O)c1cccc(NC(=O)Nc2cccc(C(=O)Nc3cc(C(=O)Nc4ccc(S(=O)(=O)O)c5cc(S(=O)(=O)O)cc(S(=O)(=O)O)c45)ccc3C)c2)c1`, in experiment [1], the inhibition worked out at 64.3%.
In the case of `C=C1CC[C@@H]2[C@](C)(CCC[C@]2(C)N=C=O)[C@H]1CC[C@H](C)C/C=N/OC(C)=O`, in experiment [1], the inhibition was determined as 44.8%.
On the same count and under the same terms, the value for `C=C1CC[C@H]2[C@@](C)(CO)CCC[C@]2(C)[C@H]1CC[C@H](C)CCO` was 29.5%.
